We go through five compounds from patent US6943147B2, “Cancer treatment using proANP peptides” (University of South Florida, priority 2003, dated 2005).

Assay [1] concerns pancreatic adenocarcinoma cells. Conditions: in one study; cited from earlier work.
Assay [2] has the same test system. The assay can be described thus: DNA synthesis by bromodeoxyuridine (BrdU) incorporation into adenocarcinoma cells. Conditions: 24 hours. The format is cell-based, human. The source says:
To investigate whether these peptide hormones were inhibiting DNA synthesis and cell proliferation bromodeoxyuridine (BrdU) incorporation into the adenocarcinoma cells was utilized. BrdU was from BD Bioscience, San Jose, Calif. DNA synthesis and doubling of the genome take place during the synthetic or S phase. BrdU is a thymidine analog incorporated into nuclear DNA during the S phase of the cell cycle. Immunohistochemical methods use BrdU also as a marker of cell proliferation in cancer biology studies. After 24 hours in culture with 1 μM of LANP, vessel dilator, kaliuretic peptide, or ANP, respectively, or with no peptide hormone (i.e., control), BrdU in a final concentration of 10 μM in the cell culture medium was added for 45 minutes—which is time in which the cells are in the logarithmic phase of cell proliferation. For immunohistochemistry, a BrdU in situ detection kit from Becton Dickinson Immunocytochemistry Systems, San Jose, Calif., was utilized.
After the 45 minutes with BrdU, the adenocarcinoma cells were washed three times in phosphate buffered saline (PBS), five minutes each. This was followed by placing the cells in a −80° C. freezer for five minutes and then 100% methanol was added at 5° C. in order for the cells to become permeable enabling the anti-BrdU antibody to reach the nucleus of the cell. The cells were then washed again in PBS before 100 μl of biotinylated anti-BrdU antibody was added. The coverslips were then incubated in a humidified chamber for one hour. After this incubation, the slides were rinsed in PBS, two minutes each. Then streptavidin-horseradish peroxidase (HRP) was added to each coverslip. The cells were then incubated for 30 minutes. Streptavidin-HRP binds to biotinylated anti-BrdU and HRP is used with addition of diaminobenzidine (DAB) substrate system to visualize BrdU incorporation into the adénocarcinoma cells. After the 30 minute incubation with streptavidin-HRP, the coverslips were rinsed in PBS, two minutes each time, before adding the DAB substrate solution, which contains DAB chromagen and DAB buffer, for five minutes. The coverslips were then rinsed in water, two minutes each time before counterstaining the slides with hematoxylin for 60 seconds followed by a thorough rinsing in water for five minutes. The incorporation of the BrdU stain into the nucleus was then counted using a Nikon Inverted Diaphot-TMD Microscope (Tokyo, Japan). The number of stained nuclei was compared in the four peptide hormone groups to the positive control group. The negative control for these studies was provided by Becton Dickinson Immunocytochemistry Systems.
BrdU has an advantage over ^3H-thymidine incorporation in that it takes less time and provides high resolution.
Cyclic GMP and prostaglandin E2 are the two known mediators of all of the previously described biologic effects of these four peptide hormones. All four of these peptide hormones-induced vasodilation of vasculature is mediated by increased cyclic GMP concentrations via enhancing guanylate cyclase activity. […] ANPs effects in the kidney are thought to be mediated by cyclic GMP. Each of these peptide hormones increase cyclic GMP while simultaneously dilating vasculature. 8 bromo-cyclic GMP reproduces these vasodilatory effects. For the present investigation of the mechanism of these peptide hormones' ability to inhibit DNA synthesis in cancer cells, 8-bromoguanosine 3′,5′-cyclic monophosphate (i.e., 8-bromo cyclic GMP, Sigma-Aldrich Co., St. Louis, Mo.) was utilized. 8-bromo cyclic GMP is a cell-permeable analog of cyclic GMP. 8-bromo cyclic GMP effects on DNA synthesis were investigated in dose-response curves with cyclic GMP concentrations ranging from 100 pM to 5 mM.
Prostaglandin E2, i.e., (5Z, 11α, 13E, 15S)-11, 15-dihydro-9-oxo-prosta-5, 13-dien-I-oic acid was purchased from Sigma-Aldrich, St. Louis, Mo. […]

The subject of assay [3] is pancreatic adenocarcinoma cell line, ATCC number CRL-2119. The assay can be described thus: Number of pancreatic adenocarcinoma cells in culture, counted by microscope. The format is cell-based, human. Conditions: for number of cancer cells compared to controls: 48 hours. The source says: The pancreatic adenocarcinoma cell line, ATCC number CRL-2119, was derived in 1985 from a nude mouse xenograft of a primary tumor removed from the head of the pancreas. It is a moderate to well-differentiated pancreatic adenocarcinoma of ductal origin. These pancreatic adenocarcinoma cells are stimulated to proliferate in culture by insulin, insulin-like growth factor I (IGF-I), epidermal growth factor (EGF), and transforming growth factor alpha (TGF alpha). These adenocarcinoma cells contain significant concentrations of tumor-associated antigens CEA, CA 125, and CA 19-9. In culture, these adenocarcinoma cells form monolayers of morphologically heterogeneous polar epithelial cells. These cells are tumorgenic in that they form tumors in athymic nude mice at the site of inoculation that are histologically similar to the tumor of origin.
Propagation of these cells was in Dulbecco's modified Eagle's plus Ham's F12-A 1:1 mixture of Dulbecco's modified Eagle's medium and Ham's F12 medium containing 1.2 g/L of sodium bicarbonate (Sigma Chemical Co., St. Louis, Mo.) supplemented with 15 mM HEPES and fetal bovine serum, 10%, at a temperature of 37° C. as recommended by the ATCC.
These pancreatic adenocarcinoma cells were subcultured (passaged) by removing spent (i.e., old) medium by aspiration, and then adding calcium and magnesium free Hank's Balanced Salt Solution with 0.25% trypsin and 0.03% ethylenediaminetetracetic acid (EDTA). The culture was allowed to sit at room temperature for 2 to 5 minutes. Fresh medium was added to the adenocarcinoma cells which were dispensed into new flasks, with subculture every 6 to 8 days. The growth medium was changed every three days.
After these adenocarcinoma cells were subcultured for 24 hours, they were then seeded to coverslips and transferred to 24 microwell plates (NUCOLON, Roskilde Denmark), with 1 ml Dulbeco Modified Eagle's (DME)/[…] nutrient culture media (Sigma Chemical Co.) with 10% fetal bovine serum (Atlanta Biologicals, Norcross, Ga.). After 24 hours, wells were washed twice with Dulbecco's Modified Eagle's/Ham's F12 with 0.1% bovine serum albumin (Sigma-Aldrich, St. Louis, Mo.) and allowed to incubate in this serum free medium for an additional 24 hour period of serum deprivation. Serum-free media was utilized to remove all variables (EGF, etc.) present in serum in order that interpretation of any data obtained would be straightforward. After 24 hours of serum deprivation, media volume was reduced to 250 μL per well with or without the respective peptide hormones at their 1 μM concentrations (1% of this volume). The adenocarcinoma cells were then incubated for various periods of time (24, 48, 72, and 96 hours).At the end of the above time periods, hematoxylin was added for 5 minutes to make the cells more visible for counting, and then they were washed for 5 minutes. The coverslips were then placed face down on microscope slides with the addition of 6 μl of histologic grade phosphate buffered saline (PBS)/I-glycine that had been filtered immediately before use with a 0.22 μm polyethersulfone, nonpyrogenic, sterile, low protein binding membrane (Corning 43117, Corning Inc., Corning, N.Y.). The number of adenocarcinoma cells were then counted with a cell counter evaluating ten fields of the microscope slide at 40× along the X-axis with an Olympus BH-2 microscope (Atlanta, Ga.). This evaluation was repeated on six separate occasions with the number of adenocarcinoma cells reflecting 60 observations for each group, i.e., 60 observations for controls and 60 observations for each of the four groups with respective peptide hormones. The only variable in this investigation was whether one of the four peptide hormones was added to the pancreatic adenocarcinoma cells. Otherwise all the adenocarcinoma cells were treated the same, i.e., with same culture medium, time of incubation, and processing of cells for the various investigations. […]

The test system of a further assay is hepatoblastoma cells. As to conditions: cited from earlier work.
In another assay the test system is rat mesangial cells. Conditions: cited from earlier work.

Take `O=c1[nH]cc(F)c(=O)[nH]1` [5-FU, 5-fluorouracil]: the “decrease in pancreatic adenocarcinoma cells in culture” value in assay [1] is 16%.

On to `Nc1nc2c(nc(Br)n2[C@@H]2O[C@@H]3COP(=O)(O)O[C@H]3[C@H]2O)c(=O)[nH]1` [8-bromo cyclic GMP, 8-bromoguanosine 3′,5′-cyclic monophosphate], for which the “decrease in DNA synthesis” value in assay [2] (1 nM) turned out to be 25%; in assay [2] (1 μM), 34%; in assay [2] (100 μM) it was 39%; in assay [2] (1 mM), 42%; in assay [2] (3 mM), 46%; in assay [2] (5 mM), 51%.

Consider `CC[C@H](C)[C@@H]1NC(=O)[C@H](CCCNC(=N)N)NC(=O)[C@H](CC(=O)O)NC(=O)[C@H](CCSC)NC(=O)[C@H](CCCNC(=N)N)NC(=O)CNC(=O)CNC(=O)[C@H](Cc2ccccc2)NC(=O)[C@@H](NC(=O)[C@H](CO)NC(=O)[C@H](CO)NC(=O)[C@H](CCCNC(=N)N)NC(=O)[C@H](CCCNC(=N)N)NC(=O)[C@H](CC(C)C)NC(=O)[C@@H](N)CO)CSSC[C@@H](C(=O)N[C@@H](CC(N)=O)C(=O)N[C@@H](CO)C(=O)N[C@@H](Cc2ccccc2)C(=O)N[C@@H](CCCNC(=N)N)C(=O)N[C@@H](Cc2ccc(O)cc2)C(=O)O)NC(=O)CNC(=O)[C@H](CC(C)C)NC(=O)CNC(=O)[C@H](CO)NC(=O)[C@H](CCC(N)=O)NC(=O)[C@H](C)NC(=O)CNC1=O` [ANP], for which the “number of cancer cells compared to controls” value in assay [3] (1 μM) is reported as 33%. Besides, the “inhibition of DNA synthesis” value in assay [2] (1 μM) is on record as 83%; in the assay with hepatoblastoma cells it was 22%; with rat mesangial cells, 47% to 60.

Turning to `CCCCC[C@H](O)/C=C/[C@H]1[C@H](O)CC(=O)[C@@H]1C/C=C\CCCC(=O)O` [prostaglandin E2, (5Z, 11α, 13E, 15S)-11, 15-dihydro-9-oxo-prosta-5, 13-dien-I-oic acid], the “decrease in DNA synthesis” value in assay [2] (10 pg/ml) is listed as 4%; in assay [2] (1 ng/ml), 5%; in assay [2] (10 ng/ml), 5%; in assay [2] (0.1 μg/ml), 9%; in assay [2] (1 μg/ml), 11%; in assay [2] (10 μg/ml), 14%. In addition, the “decrease in DNA synthesis” value in assay [2] (1 mg/ml) was 23%.

For “LANP: first 30 amino acids from the N-terminal end of the ANP prohormone (NPMYNAVSNADLMDFKNLLDHLEEKMPLED; long-acting natriuretic peptide; UniProt P01160 26-55, looked up, fragment)”, the “decrease in the number of adenocarcinoma cells” value in assay [3] (1 μM, 24 hours, vs untreated cells) is on record as 47%; in assay [3] (1 μM, 72 hours, vs untreated cells), 47%; in assay [3] (1 μM, 96 hours, vs untreated cells), 48%; in assay [3] (time not stated), ~50%. Also, the “number of adenocarcinoma cells” value in assay [3] (1 μM, 24 hours, untreated 183.4+/−8) is recorded as 97.7+/−3 cells per high powered field. Besides, the “number of cancer cells compared to controls” value in assay [3] (1 μM) was determined as 43%. Further, in assay [2] (1 μM), the “inhibition of DNA synthesis” value turned out to be 84%.
